# US9988400B2 (Genentech, Inc., priority 2013, dated 2018)
# Target: T1, HEK cells stably transfected with tetracycline inducible hNR1 and hNR2A (Homo sapiens, UniProt Q05586+Q12879)
# T1 construct: expressed in transfected cells; host or cells: HEK cells, stably transfected, tetracycline/doxycycline inducible
# Assay: Assay 1: Cell-Based Assay, cytosolic calcium response to positive allosteric modulators (with 30 μM glycine and 300 nM L-glutamate, EC30)
# Conditions: Table 2; cytosolic calcium response, with 30 μM glycine and 300 nM L-glutamate (EC30); — = no plateau was reached
# Summary of the method: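 Cells induced 24 h with 7.5 μg mL^−1 doxycycline plus 500 μM (+)-ketamine, loaded 60 min at 37 °C with calcium dye in Mg-free HBSS (1.8 mM Ca, probenecid, 10 μM (+)-ketamine, pH 7.15). Peak RFU over 5 min after compound addition, scaled to 100 μM L-glutamate (100%) and 0 μM (0%); four-parameter Hill fit for EC50, max % if no plateau.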
# T1 sequence (Q12879 23-1464, other chains not shown): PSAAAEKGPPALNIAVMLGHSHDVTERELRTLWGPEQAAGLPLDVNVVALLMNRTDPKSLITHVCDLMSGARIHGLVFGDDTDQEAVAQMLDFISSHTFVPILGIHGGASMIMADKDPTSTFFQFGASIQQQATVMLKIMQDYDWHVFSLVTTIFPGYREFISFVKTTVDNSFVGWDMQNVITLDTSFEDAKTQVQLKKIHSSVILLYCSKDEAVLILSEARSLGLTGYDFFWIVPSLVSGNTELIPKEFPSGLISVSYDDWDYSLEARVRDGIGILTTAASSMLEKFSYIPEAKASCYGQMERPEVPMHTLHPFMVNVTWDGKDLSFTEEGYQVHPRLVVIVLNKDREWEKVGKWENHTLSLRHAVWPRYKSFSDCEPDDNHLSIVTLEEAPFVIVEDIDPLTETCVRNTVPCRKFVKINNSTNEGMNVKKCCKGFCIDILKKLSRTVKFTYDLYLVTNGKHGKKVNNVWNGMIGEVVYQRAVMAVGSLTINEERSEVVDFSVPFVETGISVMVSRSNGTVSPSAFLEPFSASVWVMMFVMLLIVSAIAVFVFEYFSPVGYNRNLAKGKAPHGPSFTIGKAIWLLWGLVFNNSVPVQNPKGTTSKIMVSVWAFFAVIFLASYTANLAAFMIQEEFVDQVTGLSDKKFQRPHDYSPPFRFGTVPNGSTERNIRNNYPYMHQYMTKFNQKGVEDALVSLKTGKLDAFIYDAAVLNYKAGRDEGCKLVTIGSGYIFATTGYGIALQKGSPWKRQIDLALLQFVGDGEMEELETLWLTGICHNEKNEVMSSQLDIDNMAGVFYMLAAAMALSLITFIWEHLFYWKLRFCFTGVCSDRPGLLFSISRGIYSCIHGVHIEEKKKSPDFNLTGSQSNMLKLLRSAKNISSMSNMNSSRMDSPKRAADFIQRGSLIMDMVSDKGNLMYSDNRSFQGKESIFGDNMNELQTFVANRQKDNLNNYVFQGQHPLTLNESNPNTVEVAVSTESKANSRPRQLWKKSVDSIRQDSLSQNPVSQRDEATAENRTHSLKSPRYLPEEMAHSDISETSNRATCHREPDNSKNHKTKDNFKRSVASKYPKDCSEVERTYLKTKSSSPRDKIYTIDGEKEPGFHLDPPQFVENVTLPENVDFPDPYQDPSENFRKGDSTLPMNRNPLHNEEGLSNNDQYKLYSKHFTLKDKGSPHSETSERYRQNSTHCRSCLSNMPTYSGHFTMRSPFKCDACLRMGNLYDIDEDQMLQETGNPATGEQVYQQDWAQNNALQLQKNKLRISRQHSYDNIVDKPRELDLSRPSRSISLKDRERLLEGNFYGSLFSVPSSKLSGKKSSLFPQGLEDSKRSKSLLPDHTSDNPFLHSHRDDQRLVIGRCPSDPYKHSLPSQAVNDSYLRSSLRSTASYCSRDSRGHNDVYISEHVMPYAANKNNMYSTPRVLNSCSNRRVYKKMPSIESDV
row,Structure (SMILES),EC50
1,"CNC(=O)c1c(C)sc2nc(Cc3cc(Cl)ccc3Cl)cc(=O)n12 [Example 21.48, 7-[(2,5-dichlorophenyl)methyl]-N,2-dimethyl-5-oxo-thiazolo[3,2-a]pyrimidine-3-carboxamide]",8.2 µM
2,"CCNC(=O)c1c(C)sc2nc(Cc3cc(C#N)ccc3CCF)cc(=O)n12 [Example 21.61, 7-(5-cyano-2-(2-fluoroethyl)benzyl)-N-ethyl-2-methyl-5-oxo-5H-thiazolo[3,2-a]pyrimidine-3-carboxamide]",33.1 µM
3,"CNC(=O)c1c(C)sc2nc(Cc3cccc(CF)c3F)cc(=O)n12 [Example 21.68, 7-[[2-fluoro-3-(fluoromethyl)phenyl]methyl]-N,2-dimethyl-5-oxo-thiazolo[3,2-a]pyrimidine-3-carboxamide]",4.2 µM
4,"Cc1sc2nc(Cc3cccc(C#N)c3)cc(=O)n2c1C1CC1C#N (stereo not shown) [Example 23.1, 3-((3-(2-cyanocyclopropyl)-2-methyl-5-oxo-5H-thiazolo[3,2-a]pyrimidin-7-yl)methyl)benzonitrile]",18.1 µM
5,"Cc1sc2nc(Cc3cccc(C#N)c3F)cc(=O)n2c1C1CC1C#N (stereo not shown) [Example 23.2, 3-((3-(2-cyanocyclopropyl)-2-methyl-5-oxo-5H-thiazolo[3,2-a]pyrimidin-7-yl)methyl)-2-fluorobenzonitrile]",2.6 µM
6,"Cc1sc2nc(Cc3cccc(C#N)n3)cc(=O)n2c1C1CC1C#N (stereo not shown) [Example 23.3, 6-((3-(2-cyanocyclopropyl)-2-methyl-5-oxo-5H-thiazolo[3,2-a]pyrimidin-7-yl)methyl)picolinonitrile]",14.8 µM
7,"Cc1sc2nc(Cc3cccc(C#N)c3F)cc(=O)n2c1C1CC1 [Example 24.4, 3-((3-cyclopropyl-2-methyl-5-oxo-5H-thiazolo[3,2-a]pyrimidin-7-yl)methyl)-2-fluorobenzonitrile]",15.3 µM
8,"Cc1sc2nc(Cc3cccc(C#N)c3F)cc(=O)n2c1-c1ccco1 [Example 24.8, 2-fluoro-3-((3-(furan-2-yl)-2-methyl-5-oxo-5H-thiazolo[3,2-a]pyrimidin-7-yl)methyl)benzonitrile]",8.9 µM
9,"Cc1sc2nc(Cc3cccc(C#N)c3F)cc(=O)n2c1C(=O)NCC(F)(F)F [Example 25.1, 7-(3-cyano-2-fluorobenzyl)-2-methyl-5-oxo-N-(2,2,2-trifluoroethyl)-5H-thiazolo[3,2-a]pyrimidine-3-carboxamide]",18.7 µM
10,"Cc1sc2nc(Cc3cccc(C(F)(F)F)c3F)cc(=O)n2c1C(=O)NCC#N [Example 25.2, N-(cyanomethyl)-7-(2-fluoro-3-(trifluoromethyl)benzyl)-2-methyl-5-oxo-5H-thiazolo[3,2-a]pyrimidine-3-carboxamide]",15.2 µM
11,"Cc1sc2nc(Cc3cccc(C(F)(F)F)c3F)cc(=O)n2c1C#N [Example 26.2, 7-(2-fluoro-3-(trifluoromethyl)benzyl)-2-methyl-5-oxo-5H-thiazolo[3,2-a]pyrimidine-3-carbonitrile]",9 µM

# Same assay, conditions: Table 2; responses scaled relative to 100 μM L-glutamate maximal response (100%) and 0 μM L-glutamate (0%)
row,Structure (SMILES),Max %
1,"CCNC(=O)c1c(C2CC2)sc2nc(Cc3cccc(C#N)c3)cc(=O)n12 [Example 21.43, 7-(3-cyanobenzyl)-2-cyclopropyl-N-ethyl-5-oxo-5H-thiazolo[3,2-a]pyrimidine-3-carboxamide]",53.5%
2,"CCNC(=O)c1c(C)sc2nc(Cc3ccccc3F)cc(=O)n12 [Example 21.44, N-ethyl-7-(2-fluorobenzyl)-2-methyl-5-oxo-5H-thiazolo[3,2-a]pyrimidine-3-carboxamide]",51.9%
3,"CCNC(=O)c1c(C)sc2nc(Cc3cccc(F)c3F)cc(=O)n12 [Example 21.45, 7-(2,3-difluorobenzyl)-N-ethyl-2-methyl-5-oxo-5H-thiazolo[3,2-a]pyrimidine-3-carboxamide]",49.1%
4,"CCNC(=O)c1c(C)sc2nc(Cc3cccc(F)c3)cc(=O)n12 [Example 21.46, N-ethyl-7-(3-fluorobenzyl)-2-methyl-5-oxo-5H-thiazolo[3,2-a]pyrimidine-3-carboxamide]",43.2%
5,"CNC(=O)c1c(C)sc2nc(Cc3ccc(F)c(Cl)c3)cc(=O)n12 [Example 21.47, 7-[(3-chloro-4-fluoro-phenyl)methyl]-N,2-dimethyl-5-oxo-thiazolo[3,2-a]pyrimidine-3-carboxamide]",103%
6,"CNC(=O)c1c(C)sc2nc(Cc3cc(Cl)ccc3Cl)cc(=O)n12 [Example 21.48, 7-[(2,5-dichlorophenyl)methyl]-N,2-dimethyl-5-oxo-thiazolo[3,2-a]pyrimidine-3-carboxamide]",100%
7,"CNC(=O)c1c(C)sc2nc(Cc3cccc(OC(F)(F)F)c3)cc(=O)n12 [Example 21.49, N,2-dimethyl-5-oxo-7-[[3-(trifluoromethoxy)phenyl]methyl]thiazolo[3,2-a]pyrimidine-3-carboxamide]",82.3%
8,"CNC(=O)c1c(C)sc2nc(Cc3cc(C#N)ccc3F)cc(=O)n12 [Example 21.50, 7-[(5-cyano-2-fluoro-phenyl)methyl]-N,2-dimethyl-5-oxo-thiazolo[3,2-a]pyrimidine-3-carboxamide]",76.1%
9,"CNC(=O)c1c(C)sc2nc(Cc3cc(Cl)cc(C#N)c3)cc(=O)n12 [Example 21.51, 7-[(3-chloro-5-cyano-phenyl)methyl]-N,2-dimethyl-5-oxo-thiazolo[3,2-a]pyrimidine-3-carboxamide]",75.0%
10,"CNC(=O)c1c(C)sc2nc(Cc3cccc(C4CC4)c3)cc(=O)n12 [Example 21.52, 7-[(3-cyclopropylphenyl)methyl]-N,2-dimethyl-5-oxo-thiazolo[3,2-a]pyrimidine-3-carboxamide]",72.9%
11,"CNC(=O)c1c(C)sc2nc(Cc3cc(F)ccc3F)cc(=O)n12 [Example 21.53, 7-[(2,5-difluorophenyl)methyl]-N,2-dimethyl-5-oxo-thiazolo[3,2-a]pyrimidine-3-carboxamide]",49%
12,"CNC(=O)c1c(C)sc2nc(Cc3ccc(F)c(F)c3)cc(=O)n12 [Example 21.54, 7-[(3,4-difluorophenyl)methyl]-N,2-dimethyl-5-oxo-thiazolo[3,2-a]pyrimidine-3-carboxamide]",46%
13,"CNC(=O)c1c(C)sc2nc(Cc3cccc(F)c3F)cc(=O)n12 [Example 21.55, 7-[(2,3-difluorophenyl)methyl]-N,2-dimethyl-5-oxo-thiazolo[3,2-a]pyrimidine-3-carboxamide]",43.8%
14,"CNC(=O)c1c(C)sc2nc(Cc3ccc(Cl)cc3F)cc(=O)n12 [Example 21.56, 7-[(4-chloro-2-fluoro-phenyl)methyl]-N,2-dimethyl-5-oxo-thiazolo[3,2-a]pyrimidine-3-carboxamide]",41%
15,"CNC(=O)c1c(C)sc2nc(Cc3ccc(Cl)cc3Cl)cc(=O)n12 [Example 21.57, 7-[(2,4-dichlorophenyl)methyl]-N,2-dimethyl-5-oxo-thiazolo[3,2-a]pyrimidine-3-carboxamide]",64.1%
16,"CNC(=O)c1c(C)sc2nc(Cc3ccc(C)c(F)c3)cc(=O)n12 [Example 21.58, 7-[(3-fluoro-4-methyl-phenyl)methyl]-N,2-dimethyl-5-oxo-thiazolo[3,2-a]pyrimidine-3-carboxamide]",46.1%
17,"CNC(=O)c1c(C)sc2nc(Cc3ccc(F)cc3C(F)(F)F)cc(=O)n12 [Example 21.59, 7-[[4-fluoro-2-(trifluoromethyl)phenyl]methyl]-N,2-dimethyl-5-oxo-thiazolo[3,2-a]pyrimidine-3-carboxamide]",42.5%
18,"CNC(=O)c1c(C)sc2nc(Cc3ccc(F)cc3C3CC3)cc(=O)n12 [Example 21.60, 7-[(2-cyclopropyl-4-fluoro-phenyl)methyl]-N,2-dimethyl-5-oxo-thiazolo[3,2-a]pyrimidine-3-carboxamide]",78%
19,"CCNC(=O)c1c(C)sc2nc(Cc3cc(C#N)ccc3CCF)cc(=O)n12 [Example 21.61, 7-(5-cyano-2-(2-fluoroethyl)benzyl)-N-ethyl-2-methyl-5-oxo-5H-thiazolo[3,2-a]pyrimidine-3-carboxamide]",131%
20,"CCNC(=O)c1c(C)sc2nc(Cc3cccc(C#N)c3Cl)cc(=O)n12 [Example 21.62, 7-(2-chloro-3-cyanobenzyl)-N-ethyl-2-methyl-5-oxo-5H-thiazolo[3,2-a]pyrimidine-3-carboxamide]",45.6%
21,"CCNC(=O)c1c(C)sc2nc(Cc3c(CC)ccc(F)c3F)cc(=O)n12 [Example 21.63, N-ethyl-7-(6-ethyl-2,3-difluorobenzyl)-2-methyl-5-oxo-5H-thiazolo[3,2-a]pyrimidine-3-carboxamide]",124%
22,"CCNC(=O)c1c(C)sc2nc(Cc3cc(C#N)ccc3CC)cc(=O)n12 [Example 21.64, 7-(5-cyano-2-ethylbenzyl)-N-ethyl-2-methyl-5-oxo-5H-thiazolo[3,2-a]pyrimidine-3-carboxamide]",120%
23,"CCNC(=O)c1c(C)sc2nc(Cc3cc(F)ccc3C3CC3)cc(=O)n12 [Example 21.65, 7-(2-cyclopropyl-5-fluorobenzyl)-N-ethyl-2-methyl-5-oxo-5H-thiazolo[3,2-a]pyrimidine-3-carboxamide]",96.3%
24,"CCNC(=O)c1c(C)sc2nc(Cc3cc(C#N)ccc3C3CC3)cc(=O)n12 [Example 21.66, 7-(5-cyano-2-cyclopropylbenzyl)-N-ethyl-2-methyl-5-oxo-5H-thiazolo[3,2-a]pyrimidine-3-carboxamide]",92.4%
25,"CCCc1ccc(F)cc1Cc1cc(=O)n2c(C(=O)NCC)c(C)sc2n1 [Example 21.67, N-ethyl-7-(5-fluoro-2-propylbenzyl)-2-methyl-5-oxo-5H-thiazolo[3,2-a]pyrimidine-3-carboxamide]",75%
26,"CNC(=O)c1c(C)sc2nc(Cc3cccc(CF)c3F)cc(=O)n12 [Example 21.68, 7-[[2-fluoro-3-(fluoromethyl)phenyl]methyl]-N,2-dimethyl-5-oxo-thiazolo[3,2-a]pyrimidine-3-carboxamide]",111%
27,"CCNC(=O)c1c(C)sc2nc(C(C)c3cccc(C(F)(F)F)c3F)cc(=O)n12 (stereo not shown) [Example 22.1, N-ethyl-7-(1-(2-fluoro-3-(trifluoromethyl)phenyl)ethyl)-2-methyl-5-oxo-5H-thiazolo[3,2-a]pyrimidine-3-carboxamide]",96.9%
28,"CCN(C)C(=O)c1c(C)sc2nc(Cc3cccc(C(F)(F)F)c3F)cc(=O)n12 [Example 22.2, N-ethyl-7-(2-fluoro-3-(trifluoromethyl)benzyl)-N,2-dimethyl-5-oxo-5H-thiazolo[3,2-a]pyrimidine-3-carboxamide]",41.4%
29,"Cc1sc2nc(Cc3cccc(C#N)n3)cc(=O)n2c1C1CC1C#N (stereo not shown) [Example 23.3, 6-((3-(2-cyanocyclopropyl)-2-methyl-5-oxo-5H-thiazolo[3,2-a]pyrimidin-7-yl)methyl)picolinonitrile]",133%
